We go through four substances from patent US20100316574A1, “Oncofetal Antigen/Immature Laminin Receptor Peptides for the Sensitization of Dendritic Cells for Cancer Therapy” (Quantum Immunologics, Inc., priority 2009, published 2010).

“Also recorded” adds a separate entry of the source.

For one experiment, the system named is DU145 cells. Kind of experiment: CellTiter-Blue cell viability assay. The format is cell-based. The following applies: for effect on cell viability: compared to peptide diluent control; for cell viability versus controls: overnight. The method, then: All cells were grown in RPMI 1640 with L-glutamine; 100 I.U. Penicillin, 100 μg/ml Streptomycin, and 10% fetal calf serum at 37° C. in a humid chamber (Mediatech, Inc. Manassas, Va.). DU 145 cells were obtained from American Type Culture Collection (ATCC, Manassas, Va.) and grown in media following standard protocols. DU145 cells were grown to between 75 and 85% density and collected following standard protocols and counted using a modified Neubauer brightline hemacytometer and suspended at 400,000 cell/ml.
(§1) Peptides were dissolved in either phosphate buffered saline (PBS) or DMSO and then PBS to a maximum of 20% DMSO and a 2× solution was made and placed into complete medium. After being diluted to appropriate concentration, 50 μl was dispensed into a 96-well assay plate, either coated with laminin/entactin complex (50 μg/ml) or untreated (Black with clear bottom) (Corning Life Sciences, Corning, N.Y.), 50 μl of cells (20,000 cells/well), and were grown overnight. Cells then had 20 μl of CellTiter-Blue added ((Promega, Madison, Wis.)) and incubated for an additional 2 hours at 37° C. Cells were then read on a DTX-880 (Beckman Inc.) following standard fluorescent protocols with an integration time of 0.001 sec. To determine if caspase activity was induced, Caspase 3/7 activity was determined using ApoOne assay (Promega, Madison, Wis.). The data was exported to Excel and then to Prism 5.0 (GraphPad Software, Inc) where it was plotted, and analyzed for statistical differences between the background control (diluents used for the peptide) using a one-way ANOVA.

The test system of another experiment is Caspase 3/7. As to the kind of experiment: ApoOne Caspase 3/7 assay. In kind it is cell-based. The following applies: DU145; data not shown. The method, then:
as §1

A further experiment deals with T-cells. Particulars: previously described epitope; cited from earlier work.
Experiment [1] concerns dendritic cells pulsed with recombinant human OFA/iLRP. Kind of experiment: FACS binding of fluorescein-labeled 129 and 129-a peptides to dendritic cells pulsed with rHu OFA. In kind it is cell-based. The following applies: FITC-labeled peptide on dendritic cells pulsed with rHu OFA 100 ng/ml.
Description: CD 14+ monocytes were grown in serum-free dendritic cell medium containing: 1000 IU/ml GM-CSF and 1000 IU/ml of IL-4 (Cell Genix Antioch, IL) at 1×10^6 cells per ml. The cells were pulsed with rHu OFA at 100 ng/ml for 36 hours. The pulsed dendritic cells were matured using serum-free dendritic cell medium containing: 10 ng/ml IL-1beta, 1000 IU/ml IL-6, and 5 ng/ml TNF-alpha with 1 μm prostaglandin E2 and matured for 2 days. At the end of two days, the cells were scraped from the plate and analyzed using flow cytometry analysis.
Briefly, the peptide that was labeled on a cysteine included allowing for conjugation using Fluorsceine-5-maledimide (Pierce/Thermo, Rockford, Ill.) following standard protocols. The unbound fluorsceine was removed using a standard dye-removal column (Pierce/Thermo, Rockford, Ill.). This cysteine can also be used to conjugate the peptides to a range of different products.
To determine if the maturation was successful, the cells were analyzed with CD14, CD83, CD80/86, and Class II MHC (HLA-DR) following standard protocols (R&D systems; Minneapolis, Minn.). Briefly, 0.5×10^5 cells per tube were suspended in 25 μl or phosphate buffered saline with 2% fetal calf serum. […] The cells were resuspended in 400 μl of PBS with 2% FCS and analyzed. If the cells could not be analyzed immediately, then they were fixed in 0.5% formaldehyde/PBS at 4° C. in the dark. […]

Regarding “amino acids 49-60: peptide made against the previously described OFA/iLRP epitope (amino acids 49-60), Rohrer 2006 (INLKRTWEKLLL; UniProt P08865 49-60, looked up, fragment) [reference compound]”, the “effect on cell viability” value in the experiment on DU145 cells is reported as “unable to affect cell viability; also recorded: did not affect cell viability”. Moreover, the “Caspase 3/7 activity / induction of apoptosis” value in the experiment with Caspase 3/7 was “unable to affect cell viability or induce apoptosis”. Moreover, in the experiment with T-cells, the T-cell proliferation result was “able to proliferate T-cells”.

For the substance “GRFTPGTFTNQIQAAFREP [peptide 2, start site 101]”, the results for the “effect on cell viability” value in the experiment with DU145 cells and in the experiment with DU145 cells (listed as Peptide 2) were “significant effect” and “significantly different than the control”, respectively. The “decrease of cell viability” value in the experiment with DU145 cells (versus control, p<0.05) is “over 2 fold”. Besides, the “Caspase 3/7 activity / induction of apoptosis” value in the experiment on Caspase 3/7 is recorded as “no significant change”.

With “Ac-CADHQPLTEASYVNLPT-amide (Ac-CADHQPLTEASYVNLPT-NH2) [129 peptide, start site 129]”, the “mean fluoresence intesity (MFI)” value in experiment [1] is given as 11,390+/−500.6.

On to TWEKLLLAARAIVAIENPAD [peptide 1], for which the “cell viability versus controls” value in the experiment with DU145 cells (laminin/entactin coated plate (laminin)) and in the experiment with DU145 cells (uncoated plate (w/o laminin)) was “no statistical difference” each time.
